This note sets out measurements from US20210283261A1, “Compositions and Methods for Treating ALK-Mediated Cancer” (ICAHN SCHOOL OF MEDICINE AT MOUNT SINAI, priority 2017, published 2021).

The assay concerns the target T1, NPM-ALK fusion protein (Homo sapiens, UniProt Q9UM73).
T1 construct: endogenous in cells; host or cells: SU-DHL-1; the other entry of the earlier key: NPM1 (P06748, Nucleophosmin)
Description: Western blot of NPM-ALK fusion protein levels in SU-DHL-1 cells. It is filed as cell-based. Conditions: SU-DHL-1 cells, 30 nM, Western blot; for Dmax at 0.03 µM: read-out: ALK fusion protein degradation, SU-DHL-1 (30 nM). As for the experimental part: Cells were cultured in a 37° C. incubator with 5% CO2.
Cells were washed with cold PBS once and lysed in 1× Laemmli loading buffer directly. […] Membrane was blocked in 5% milk in Tris-buffered saline and Tween 20 (TBST) for 1 h at room temperature, followed by incubation with a primary antibody overnight at 4° C., and a horseradish peroxidase (HRP)-conjugated secondary antibody for 1 h at room temperature. The membrane was imaged by a ChemiDoc MP imaging system (BIO-RAD). Antibodies against GAPDH (abeam), Phospho-ALK (Tyr1507), ALK (Cell Signaling Technology), Tubulin (Santa Cruz) were purchased commercially.
SU-DHL-1 suspension cells were seeded in 12-well plates at a density of 6×10^5/mL and treated with DMSO or indicated compounds at 30 nM or 100 nM for indicated time.
SU-DHL-1 cells were seeded in 12-well plates at a density of 4×10^5/mL and treated with DMSO or indicated serial dilutions of compounds for 16 h. The NPM-ALK fusion protein levels were determined by Western blot and normalized against GPADH (right panel).

T1 sequence (Q9UM73 with tags, fused parts or gaps): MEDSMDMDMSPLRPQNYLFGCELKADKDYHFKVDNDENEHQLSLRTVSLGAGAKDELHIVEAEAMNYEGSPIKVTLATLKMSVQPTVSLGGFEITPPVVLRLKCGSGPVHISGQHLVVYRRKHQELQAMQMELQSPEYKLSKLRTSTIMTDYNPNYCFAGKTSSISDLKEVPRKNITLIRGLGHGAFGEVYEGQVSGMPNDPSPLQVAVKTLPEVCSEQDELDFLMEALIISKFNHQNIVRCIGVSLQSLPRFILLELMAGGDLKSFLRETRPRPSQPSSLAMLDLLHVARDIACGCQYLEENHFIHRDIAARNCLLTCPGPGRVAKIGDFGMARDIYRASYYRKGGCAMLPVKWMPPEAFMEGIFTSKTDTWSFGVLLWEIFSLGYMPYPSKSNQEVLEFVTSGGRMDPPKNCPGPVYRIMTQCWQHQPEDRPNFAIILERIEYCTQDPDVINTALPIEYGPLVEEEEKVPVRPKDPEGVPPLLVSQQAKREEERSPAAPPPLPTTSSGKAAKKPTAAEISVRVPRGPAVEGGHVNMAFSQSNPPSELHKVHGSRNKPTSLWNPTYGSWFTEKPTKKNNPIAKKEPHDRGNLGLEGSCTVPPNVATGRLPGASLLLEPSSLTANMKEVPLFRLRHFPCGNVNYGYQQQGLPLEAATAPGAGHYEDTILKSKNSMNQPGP

For the compound `Cc1cc(Nc2ncc(Cl)c(Nc3ccccc3S(=O)(=O)C(C)C)n2)c(OC(C)C)cc1C1CCN(CC(=O)NCCCCCCCCC(=O)N[C@H](C(=O)N2C[C@H](O)C[C@H]2C(=O)NCc2ccc(-c3scnc3C)cc2)C(C)(C)C)CC1` [CZ40-92, (2S,4R)-1-((S)-2-(9-(2-(4-(4-((5-Chloro-4-((2-(isopropylsulfonyl)phenyl)amino)pyrimidin-2-yl)amino)-5-isopropoxy-2-methylphenyl)piperidin-1-yl)acetamido)nonanaimdo)-3,3-dimethylbutanoyl)-4-hydroxy-N-(4-(4-methylthiazol-5-yl)benzyl)pyrrolidine-2-carboxamide], the Dmax at 0.03 µM was under 20%.

In the case of `Cc1cc(Nc2ncc(Cl)c(Nc3ccccc3S(=O)(=O)C(C)C)n2)c(OC(C)C)cc1C1CCN(CC(=O)NCCCCCCC(=O)N[C@H](C(=O)N2C[C@H](O)C[C@H]2C(=O)NCc2ccc(-c3scnc3C)cc2)C(C)(C)C)CC1` [CZ40-90, (2S,4R)-1-((S)-2-(7-(2-(4-(4-((5-Chloro-4-((2-(isopropylsulfonyl)phenyl)amino)pyrimidin-2-yl)amino)-5-isopropoxy-2-methylphenyl)piperidin-1-yl)acetamido)heptanamido)-3,3-dimethylbutanoyl)-4-hydroxy-N-(4-(4-methylthiazol-5-yl)benzyl)pyrrolidine-2-carboxamide], the Dmax at 0.03 µM was under 20%.

As for `Cc1cc(Nc2ncc(Cl)c(Nc3ccccc3S(=O)(=O)C(C)C)n2)c(OC(C)C)cc1C1CCN(CC(=O)NCCOCCOCCOCCNc2cccc3c2C(=O)N(C2CCC(=O)NC2=O)C3=O)CC1` (stereo not drawn) [CZ40-52, 2-(4-(4-((5-Chloro-4-((2-(isopropylsulfonyl)phenyl)amino)pyrimidin-2-yl)amino)-5-isopropoxy-2-methylphenyl)piperidin-1-yl)-N-(2-(2-(2-(2-((2-(2,6-dioxopiperidin-3-yl)-1,3-dioxoisoindolin-4-yl)amino)ethoxy)ethoxy)ethoxy)ethyl)acetamide], the Dmax at 0.03 µM was over 80%.

With `Cc1cc(Nc2ncc(Cl)c(Nc3ccccc3S(=O)(=O)C(C)C)n2)c(OC(C)C)cc1C1CCN(CC(=O)NCCCCCCCCCC(=O)N[C@H](C(=O)N2C[C@H](O)C[C@H]2C(=O)NCc2ccc(-c3scnc3C)cc2)C(C)(C)C)CC1` [CZ40-93], the Dmax at 0.03 µM is under 20%.

For `Cc1cc(Nc2ncc(Cl)c(Nc3ccccc3S(=O)(=O)C(C)C)n2)c(OC(C)C)cc1C1CCN(CC(=O)NCCCCCCCCNc2cccc3c2C(=O)N(C2CCC(=O)NC2=O)C3=O)CC1` (stereo not drawn) [CZ40-84, 2-(4-(4-((5-Chloro-4-((2-(isopropylsulfonyl)phenyl)amino)pyrimidin-2-yl)amino)-5-isopropoxy-2-methylphenyl)piperidin-1-yl)-N-(8-((2-(2,6-dioxopiperidin-3-yl)-1,3-dioxoisoindolin-4-yl)amino)octyl)acetamide], the Dmax at 0.03 µM lay in the range of 20 to 80%.

For `Cc1cc(Nc2ncc(Cl)c(Nc3ccccc3S(=O)(=O)C(C)C)n2)c(OC(C)C)cc1C1CCN(CC(=O)NCCCCC(=O)N[C@H](C(=O)N2C[C@H](O)C[C@H]2C(=O)NCc2ccc(-c3scnc3C)cc2)C(C)(C)C)CC1` [CZ40-88, (2S,4R)-1-((S)-2-(5-(2-(4-(4-((5-Chloro-4-((2-(isopropylsulfonyl)phenyl)amino)pyrimidin-2-yl)amino)-5-isopropoxy-2-methylphenyl)piperidin-1-yl)acetamido)pentanamido)-3,3-dimethylbutanoyl)-4-hydroxy-N-(4-(4-methylthiazol-5-yl)benzyl)pyrrolidine-2-carboxamide], the Dmax at 0.03 µM fell in the range of 20 to 80%.

As to `Cc1cc(Nc2ncc(Cl)c(Nc3ccccc3S(=O)(=O)C(C)C)n2)c(OC(C)C)cc1C1CCN(CC(=O)NCCCCCCCNc2cccc3c2C(=O)N(C2CCC(=O)NC2=O)C3=O)CC1` (stereo not drawn) [CZ40-83, 2-(4-(4-((5-Chloro-4-((2-(isopropylsulfonyl)phenyl)amino)pyrimidin-2-yl)amino)-5-isopropoxy-2-methylphenyl)piperidin-1-yl)-N-(7-((2-(2,6-dioxopiperidin-3-yl)-1,3-dioxoisoindolin-4-yl)amino)heptyl)acetamide], the Dmax at 0.03 µM was over 80%.

Take `Cc1cc(Nc2ncc(Cl)c(Nc3ccccc3S(=O)(=O)C(C)C)n2)c(OC(C)C)cc1C1CCN(CC(=O)NCCOCCOCC(=O)N[C@H](C(=O)N2C[C@H](O)C[C@H]2C(=O)NCc2ccc(-c3scnc3C)cc2)C(C)(C)C)CC1` [CZ40-86, (2S,4R)-1-((S)-2-(tert-Butyl)-14-(4-(4-((5-chloro-4-((2-(isopropylsulfonyl)phenyl)amino)pyrimidin-2-yl)amino)-5-isopropoxy-2-methylphenyl)piperidin-1-yl)-4,13-dioxo-6,9-dioxa-3,12-diazatetradecanoyl)-4-hydroxy-N-(4-(4-methylthiazol-5-yl)benzyl)pyrrolidine-2-carboxamide]: the Dmax at 0.03 µM was under 20%.

`Cc1cc(Nc2ncc(Cl)c(Nc3ccccc3S(=O)(=O)C(C)C)n2)c(OC(C)C)cc1C1CCN(CC(=O)NCCCCCCCCCCC(=O)NC(C(=O)N2CC(O)CC2C(=O)NCc2ccc(-c3scnc3C)cc2)C(C)(C)C)CC1` [CZ40-94, (2S,4R)-1-((S)-2-((11-(2-(4-(4-((5-Chloro-4-((2-(isopropylsulfonyl)phenyl)amino)pyrimidin-2-yl)amino)-5-isopropoxy-2-methylphenyl)piperidin-1-yl)acetamido)undecanamido)-3,3-dimethylbutanoyl)-4-hydroxy-N-(4-(4-methylthiazol-5-yl)benzyl)pyrrolidine-2-carboxamide]: the “ALK fusion protein degradation, SU-DHL-1 (30 nM)” value was “+ (Protein degradation 20-80%)”.

`Cc1cc(Nc2ncc(Cl)c(Nc3ccccc3S(=O)(=O)C(C)C)n2)c(OC(C)C)cc1C1CCN(CC(=O)NCCCCNc2cccc3c2C(=O)N(C2CCC(=O)NC2=O)C3=O)CC1` (stereo not drawn) [CZ40-80, 2-(4-(4-((5-Chloro-4-((2-(isopropylsulfonyl)phenyl)amino)pyrimidin-2-yl)amino)-5-isopropoxy-2-methylphenyl)piperidin-1-yl)-N-(4-((2-(2,6-dioxopiperidin-3-yl)-1,3-dioxoisoindolin-4-yl)amino)butyl)acetamide]: the Dmax at 0.03 µM is 20 to 80%.

Turning to `Cc1cc(Nc2ncc(Cl)c(Nc3ccccc3S(=O)(=O)C(C)C)n2)c(OC(C)C)cc1C1CCN(CC(=O)NCCCCCCNc2cccc3c2C(=O)N(C2CCC(=O)NC2=O)C3=O)CC1` (stereo not drawn) [CZ40-82, 2-(4-(4-((5-Chloro-4-((2-(isopropylsulfonyl)phenyl)amino)pyrimidin-2-yl)amino)-5-isopropoxy-2-methylphenyl)piperidin-1-yl)-N-(6-((2-(2,6-dioxopiperidin-3-yl)-1,3-dioxoisoindolin-4-yl)amino)hexyl)acetamide], the Dmax at 0.03 µM was over 80%.

On to `Cc1cc(Nc2ncc(Cl)c(Nc3ccccc3S(=O)(=O)C(C)C)n2)c(OC(C)C)cc1C1CCN(CC(=O)NCCCNc2cccc3c2C(=O)N(C2CCC(=O)NC2=O)C3=O)CC1` (stereo not drawn) [CZ40-79, 2-(4-(4-((5-Chloro-4-((2-(isopropylsulfonyl)phenyl)amino)pyrimidin-2-yl)amino)-5-isopropoxy-2-methylphenyl)piperidin-1-yl)-N-(3-((2-(2,6-dioxopiperidin-3-yl)-1,3-dioxoisoindolin-4-yl)amino)propyl)acetamide], for which the Dmax at 0.03 µM was over 80%.

For `Cc1cc(Nc2ncc(Cl)c(Nc3ccccc3S(=O)(=O)C(C)C)n2)c(OC(C)C)cc1C1CCN(CC(=O)NCCOCC(=O)N[C@H](C(=O)N2C[C@H](O)C[C@H]2C(=O)NCc2ccc(-c3scnc3C)cc2)C(C)(C)C)CC1` [CZ40-85, (2S,4R)-1-((S)-2-(2-(2-(2-(4-(4-((5-Chloro-4-((2-(isopropylsulfonyl)phenyl)amino)pyrimidin-2-yl)amino)-5-isopropoxy-2-methylphenyl)piperidin-1-yl)acetamido)ethoxy)acetamido)-3,3-dimethylbutanoyl)-4-hydroxy-N-(4-(4-methylthiazol-5-yl)benzyl)pyrrolidine-2-carboxamide], the Dmax at 0.03 µM was under 20%.

With `Cc1cc(Nc2ncc(Cl)c(Nc3ccccc3S(=O)(=O)C(C)C)n2)c(OC(C)C)cc1C1CCN(CC(=O)NCCCCCNc2cccc3c2C(=O)N(C2CCC(=O)NC2=O)C3=O)CC1` (stereo not drawn) [CZ40-81, 2-(4-(4-((5-Chloro-4-((2-(isopropylsulfonyl)phenyl)amino)pyrimidin-2-yl)amino)-5-isopropoxy-2-methylphenyl)piperidin-1-yl)-N-(5-((2-(2,6-dioxopiperidin-3-yl)-1,3-dioxoisoindolin-4-yl)amino)pentyl)acetamide], the Dmax at 0.03 µM was over 80%.

For `Cc1cc(Nc2ncc(Cl)c(Nc3ccccc3S(=O)(=O)C(C)C)n2)c(OC(C)C)cc1C1CCN(CC(=O)NCCCCCC(=O)N[C@H](C(=O)N2C[C@H](O)C[C@H]2C(=O)NCc2ccc(-c3scnc3C)cc2)C(C)(C)C)CC1` [CZ40-89, (2S,4R)-1-((S)-2-(6-(2-(4-(4-((5-chloro-4-((2-(isopropylsulfonyl)phenyl)amino)pyrimidin-2-yl)amino)-5-isopropoxy-2-methylphenyl)piperidin-1-yl)acetamido)hexanamido)-3,3-dimethylbutanoyl)-4-hydroxy-N-(4-(4-methylthiazol-5-yl)benzyl)pyrrolidine-2-carboxamide], the Dmax at 0.03 µM was in the range of 20 to 80%.
